Columns and labels:
Type in all cases: biochemical
hCA II = target: T1, hCA II (Homo sapiens, UniProt P00918); experiment: stopped-flow CO2 hydrase assay, hCA II; conditions: recombinant hCA II; mean from 3 different assays, errors ±5–10%
T1 construct: made in house
Procedure: (§1) An applied photophysics stopped-flow instrument has been used for assaying the CA-catalyzed CO2 hydration activity. Phenol red (0.2 mM) has been used as indicator, working at the absorbance maximum of 557 nm, with 20 mM Hepes (pH 7.5, for α-CAs) as buffer, and 20 mM NaClO4 (for maintaining constant the ionic strength), following the initial rates of the CA-catalyzed CO2 hydration reaction for a period of 10–100 s. The CO2 concentrations ranged from 1.7 to 17 mM for the determination of the kinetic parameters and inhibition constants. […] The uncatalyzed rates were determined in the same manner and subtracted from the total observed rates. Stock solutions of each inhibitor (1 µM) were prepared in distilled-deionized water and dilutions up to 0.1 nM were done thereafter with the assay buffer. […] The inhibition constants were obtained by non-linear least-squares methods using PRISM 3 and the Cheng–Prusoff equation, and represent the average from at least three different determinations. All recombinant CA isoforms were obtained in-house as previously reported[38]^,[39].

hCA XII = target: T2, hCA XII (Homo sapiens, UniProt O43570); experiment: stopped-flow CO2 hydrase assay, hCA XII; conditions: recombinant hCA XII; mean from 3 different assays, errors ±5–10%
T2 construct: made in house
T2 sequence (O43570 25-354): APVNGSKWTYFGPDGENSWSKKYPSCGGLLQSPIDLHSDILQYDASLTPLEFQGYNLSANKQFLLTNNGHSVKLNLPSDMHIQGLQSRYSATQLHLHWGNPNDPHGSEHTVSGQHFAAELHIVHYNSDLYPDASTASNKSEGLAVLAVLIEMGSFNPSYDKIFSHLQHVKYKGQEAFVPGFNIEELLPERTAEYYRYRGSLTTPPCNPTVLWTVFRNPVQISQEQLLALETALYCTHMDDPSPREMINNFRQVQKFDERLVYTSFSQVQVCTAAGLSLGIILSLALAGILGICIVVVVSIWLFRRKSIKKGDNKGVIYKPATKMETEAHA
Procedure: as §1

hCA I = target: T3, hCA I (Homo sapiens, UniProt P00915); experiment: stopped-flow CO2 hydrase assay, hCA I; conditions: recombinant hCA I; mean from 3 different assays, errors ±5–10%
T3 construct: made in house
T3 sequence (P00915 whole entry): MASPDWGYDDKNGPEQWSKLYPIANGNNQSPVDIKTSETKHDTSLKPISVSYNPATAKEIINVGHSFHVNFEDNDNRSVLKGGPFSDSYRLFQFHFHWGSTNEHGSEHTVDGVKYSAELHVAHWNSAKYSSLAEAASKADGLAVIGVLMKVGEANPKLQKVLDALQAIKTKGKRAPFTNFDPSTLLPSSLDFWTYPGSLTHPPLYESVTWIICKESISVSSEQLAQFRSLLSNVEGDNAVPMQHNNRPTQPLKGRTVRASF
Procedure: as §1

hCA IX = target: T4, hCA IX (Homo sapiens, UniProt Q16790); experiment: stopped-flow CO2 hydrase assay, hCA IX; conditions: recombinant hCA IX; mean from 3 different assays, errors ±5–10%
T4 construct: made in house
Procedure: as §1

Ki (hCA II) [nM] | Ki (hCA XII) [nM] | Ki (hCA I) [nM] | Ki (hCA IX) [nM] | Compound
> 10000 | 4.6 | > 10000 | 218 | Cc1ccccc1CNS(=O)(=O)c1ccccc1CO [Compound 1, 2-(Hydroxymethyl)-N-(2-methylbenzyl)benzenesulfonamide]
> 10000 | 54 | > 10000 | 200 | O=S(=O)(NCc1ccccc1C(F)(F)F)c1ccccc1CO [Compound 2, 2-(Hydroxymethyl)-N-(2-(trifluoromethyl)benzyl)benzenesulfonamide]
> 10000 | 323 | > 10000 | 113 | O=S(=O)(NCc1ccccc1Br)c1ccccc1CO [Compound 4, N-(2-bromobenzyl)-2-(hydroxymethyl)benzenesulfonamide]
> 10000 | 4.3 | > 10000 | 223 | Cc1cccc(CNS(=O)(=O)c2ccccc2CO)c1 [Compound 5, 2-(Hydroxymethyl)-N-(3-methylbenzyl)benzenesulfonamide]
> 10000 | 4.4 | > 10000 | 238 | O=S(=O)(NCc1cccc(C(F)(F)F)c1)c1ccccc1CO [Compound 6, 2-(Hydroxymethyl)-N-(3-(trifluoromethyl)benzyl)benzenesulfonamide]
> 10000 | 382 | > 10000 | 176 | O=[N+]([O-])c1cccc(CNS(=O)(=O)c2ccccc2CO)c1 [Compound 7, 2-(Hydroxymethyl)-N-(3-nitrobenzyl)benzenesulfonamide]
> 10000 | 247 | > 10000 | 268 | O=S(=O)(NCc1cccc(F)c1)c1ccccc1CO [Compound 8, N-(3-fluorobenzyl)-2-(hydroxymethyl)benzenesulfonamide]
> 10000 | 64 | > 10000 | 267 | O=S(=O)(NCc1cccc(Br)c1)c1ccccc1CO [Compound 9, N-(3-bromobenzyl)-2-(hydroxymethyl)-benzenesulfonamide]
> 10000 | 5.7 | > 10000 | 120 | Cc1ccc(CNS(=O)(=O)c2ccccc2CO)cc1 [Compound 10, 2-(Hydroxymethyl)-N-(4-methylbenzyl)benzenesulfonamide]
> 10000 | 7.2 | > 10000 | 253 | O=S(=O)(NCc1ccc(C(F)(F)F)cc1)c1ccccc1CO [Compound 11, 2-(Hydroxymethyl)-N-(4-(trifluoromethyl)benzyl)benzenesulfonamide]
> 10000 | 57 | > 10000 | 126 | N#Cc1ccc(CNS(=O)(=O)c2ccccc2CO)cc1 [Compound 12, N-(4-cyanobenzyl)-2-(hydroxymethyl)benzenesulfonamide]
> 10000 | 54 | > 10000 | 20 | O=[N+]([O-])c1ccc(CNS(=O)(=O)c2ccccc2CO)cc1 [Compound 13, 2-(Hydroxymethyl)-N-(4-nitrobenzyl)benzenesulfonamide]
> 10000 | 63 | > 10000 | 26 | O=S(=O)(NCc1ccc(F)cc1)c1ccccc1CO [Compound 14, N-(4-fluorobenzyl)-2-(hydroxymethyl)benzenesulfonamide]
> 10000 | 48 | > 10000 | 154 | O=S(=O)(NCc1ccc(Cl)cc1)c1ccccc1CO [Compound 15, N-(4-chlorobenzyl)-2-(hydroxymethyl)benzenesulfonamide]
> 10000 | 432 | > 10000 | 145 | O=S(=O)(NCc1ccc(Br)cc1)c1ccccc1CO [Compound 16, N-(4-bromobenzyl)-2-(hydroxymethyl)benzenesulfonamide]
> 10000 | 45 | > 10000 | 296 | O=S(=O)(NCc1c(F)cccc1F)c1ccccc1CO [Compound 17, N-(2,6-difluorobenzyl)-2-(hydroxymethyl)benzenesulfonamide]
> 10000 | 40 | > 10000 | 298 | O=S(=O)(NCc1ccc(Cl)c(Cl)c1)c1ccccc1CO [Compound 18, N-(3,4-dichlorobenzyl)-2-(hydroxymethyl)benzenesulfonamide]
> 10000 | 345 | > 10000 | 294 | O=S(=O)(NCc1cccc2ccccc12)c1ccccc1CO [Compound 19, 2-(Hydroxymethyl)-N-(naphthalen-1-ylmethyl)benzenesulfonamide]
> 10000 | 64 | > 10000 | 224 | O=S(=O)(NCC(O)c1ccccc1)c1ccccc1CO (stereo not drawn) [Compound 20, N-(2-hydroxy-2-phenylethyl)-2-(hydroxymethyl)benzenesulfonamide]
> 10000 | 355 | > 10000 | 31 | COc1cccc(C(O)CNS(=O)(=O)c2ccccc2CO)c1 (stereo not drawn) [Compound 21, N-(2-hydroxy-2-(3-methoxyphenyl)ethyl)-2-(hydroxymethyl)benzenesulfonamide]

Compound | Ki (hCA II) [nM] | Ki (hCA XII) [nM] | Ki (hCA I) [nM] | Ki (hCA IX) [nM]
O=[N+]([O-])c1ccccc1CNS(=O)(=O)c1ccccc1CO [Compound 3, 2-(Hydroxymethyl)-N-(2-nitrobenzyl)benzenesulfonamide] | > 10000 | 383 | > 10000 | 104

From publication PMC6009879, “Open saccharin-based secondary sulfonamides as potent and selective inhibitors of cancer-related carbonic anhydrase IX and XII isoforms” (Journal of Enzyme Inhibition and Medicinal Chemistry, 2016)
